Source: patent US4493828A, “Use of thyrotropin releasing hormone and related peptides as poultry growth promotants” (Merck & Co., Inc., priority 1982, dated 1985)

Tested on: 4-week-old Hubbard×Hubbard cockerels
Experiment: Example 2: effect of TRH on growth in 4-week-old male chicks (25 days)
Assay type: in vivo, chicken
Procedure: Four-week-old Hubbard×Hubbard cockerels were used in this experiment, and average weight was 831.38 g. Synthetic TRH (Beckman Co., CA) was dissolved in saline and given daily by intravenous injection via the brachial vein at 0.1 μg/bird, 1.0 μg/bird, and 10 μg/ bird. Birds were weighed twice a week for 4 weeks. Data were analyzed by least squares of variance, using initial weight as a covariant.

[1] = 1.0 μg/bird/day, 22 (p 0.05) and 25 (p 0.025) days after the start of treatment
[2] = TRH (high) 10 μg/bird daily intravenous, day 4 after start of treatment
[3] = TRH (high) 10 μg/bird daily intravenous, day 8 after start of treatment
[4] = TRH (high) 10 μg/bird daily intravenous, day 11 after start of treatment
[5] = TRH (high) 10 μg/bird daily intravenous, day 15 after start of treatment
[6] = TRH (high) 10 μg/bird daily intravenous, day 18 after start of treatment
[7] = TRH (high) 10 μg/bird daily intravenous, day 22 after start of treatment
[8] = TRH (high) 10 μg/bird daily intravenous, day 25 after start of treatment
[9] = TRH (low) 0.1 μg/bird daily intravenous, day 4 after start of treatment
[10] = TRH (low) 0.1 μg/bird daily intravenous, day 8 after start of treatment
[11] = TRH (low) 0.1 μg/bird daily intravenous, day 11 after start of treatment
[12] = TRH (low) 0.1 μg/bird daily intravenous, day 15 after start of treatment
[13] = TRH (low) 0.1 μg/bird daily intravenous, day 18 after start of treatment
[14] = TRH (low) 0.1 μg/bird daily intravenous, day 18 after start of treatment, p < 0.1
[15] = TRH (low) 0.1 μg/bird daily intravenous, day 22 after start of treatment
[16] = TRH (low) 0.1 μg/bird daily intravenous, day 22 after start of treatment, p < 0.1
[17] = TRH (low) 0.1 μg/bird daily intravenous, day 25 after start of treatment, p < 0.1
[18] = TRH (med.) 1.0 μg/bird daily intravenous, day 4 after start of treatment
[19] = TRH (med.) 1.0 μg/bird daily intravenous, day 8 after start of treatment
[20] = TRH (med.) 1.0 μg/bird daily intravenous, day 11 after start of treatment
[21] = TRH (med.) 1.0 μg/bird daily intravenous, day 15 after start of treatment

In the case of `NC(=O)[C@@H]1CCCN1C(=O)[C@H](Cc1c[nH]cn1)NC(=O)[C@@H]1CCC(=O)N1` [TRH, Glp--His--Pro--NH2], the “body weight compared with birds receiving saline injections (in words)” value (0.1 μg/bird/day) is reported as “slight increase in body weight”, the “body weight compared with birds receiving saline injections (in words)” value [1] is reported as “significant increase in body weight” and the “body weight gain as compared with control birds (in words)” value [1] is reported as “significant increase”. For the same molecule, the “body weight compared with birds receiving saline injections (in words)” value (10 μg/bird/day) was “slight increase in body weight”, the “body weight gain as compared with control birds (in words)” value (10 μg/bird/day, throughout the whole experiment) was “slight increase in body weight gain” and the body weight gain [2] was 156.3 ± 8.4 g. The “body weight gain, percent increase as compared with control” value (from here on “body weight gain, percent increase”) [2] was 4.6%, the “body weight, least squares mean ± standard error of the mean corrected by initial weight” value [2] was 997.7 ± 8.3 g and the “body weight, percent increased as compared with control” value (shortened to “body weight, percent increased”) [2] was 0.7%. For the same molecule, the body weight gain [3] was 377.9 ± 15.1 g, the “body weight gain, percent increase” value [3] was 0% and the “body weight, least squares mean ± standard error of the mean corrected by initial weight” value [3] was 1219.1 ± 15.0 g. For the same molecule, the “body weight, percent increased” value [3] was 0%, the body weight gain [4] was 542.9 ± 20.5 g and the “body weight gain, percent increase” value [4] was 0%. The “body weight, least squares mean ± standard error of the mean corrected by initial weight” value [4] was 1381.7 ± 20.3 g, the “body weight, percent increased” value [4] was 0% and the body weight gain [5] was 786.4 ± 20.4 g. For the same molecule, the “body weight gain, percent increase” value [5] was 0.9%, the “body weight, least squares mean ± standard error of the mean corrected by initial weight” value [5] was 1627.6 ± 20.4 g and the “body weight, percent increased” value [5] was 0.4%. For the same molecule, the body weight gain [6] was 981.5 ± 24.3 g, the “body weight gain, percent increase” value [6] was 2.7% and the “body weight, least squares mean ± standard error of the mean corrected by initial weight” value [6] was 1821.6 ± 24.2 g. The “body weight, percent increased” value [6] was 1.4%, the body weight gain [7] was 1193.2 ± 26.3 g and the “body weight gain, percent increase” value [7] was 2.1%. For the same molecule, the “body weight, least squares mean ± standard error of the mean corrected by initial weight” value [7] was 2034.4 ± 26.3 g, the “body weight, percent increased” value [7] was 1.2% and the body weight gain [8] was 1390.9 ± 28.7 g. The “body weight gain, percent increase” value [8] was 2.9%, the “body weight, least squares mean ± standard error of the mean corrected by initial weight” value [8] was 2232.1 ± 28.7 g and the “body weight, percent increased” value [8] was 1.7%. For the same molecule, the body weight gain [9] was 167.1 ± 8.4 g, the “body weight gain, percent increase” value [9] was 11.8% and the “body weight, least squares mean ± standard error of the mean corrected by initial weight” value [9] was 1012.2 ± 8.3 g. For the same molecule, the “body weight, percent increased” value [9] was “+2.2%”, the body weight gain [10] was 407.6 ± 15.1 g and the “body weight gain, percent increase” value [10] was 7.8%. For the same molecule, the “body weight, least squares mean ± standard error of the mean corrected by initial weight” value [10] was 1248 ± 15.0 g, the “body weight, percent increased” value [10] was “+2.4%” and the body weight gain [11] was 585.1 ± 20.5 g. The “body weight gain, percent increase” value [11] was 7.0%, the “body weight, least squares mean ± standard error of the mean corrected by initial weight” value [11] was 1426.4 ± 20.3 g and the “body weight, percent increased” value [11] was “+2.8%”. For the same molecule, the body weight gain [12] was 822.9 ± 20.4 g, the “body weight gain, percent increase” value [12] was 5.6% and the “body weight, least squares mean ± standard error of the mean corrected by initial weight” value [12] was 1664.2 ± 20.4 g. For the same molecule, the “body weight, percent increased” value [12] was “+2.7%”, the “body weight gain, percent increase” value [13] was 6.3% and the “body weight, percent increased” value [13] was “+3.3%”. The body weight gain [14] was 1015.8 ± 24.3 g, the “body weight, least squares mean ± standard error of the mean corrected by initial weight” value [14] was 1856.9 ± 24.2 g and the “body weight gain, percent increase” value [15] was 6.4%. The “body weight, percent increased” value [15] was 3.7%, the body weight gain [16] was 1243.5 ± 26.3 g and the “body weight, least squares mean ± standard error of the mean corrected by initial weight” value [16] was 2084.7 ± 26.3 g. The “body weight, percent increased” value (TRH (low) 0.1 μg/bird daily intravenous, day 25 after start of treatment) was 3.4%, the “body weight gain, percent increase” value (TRH (low) 0.1 μg/bird daily intravenous, day 25 after start of treatment (end of experiment)) was 5.6% and the body weight gain [17] was 1428.1 g. The “body weight, least squares mean ± standard error of the mean corrected by initial weight” value [17] was 2269.3 g, the body weight gain [18] was 170.1 ± 7.9 g and the “body weight gain, percent increase” value [18] was 13.9%. The “body weight, least squares mean ± standard error of the mean corrected by initial weight” value [18] was 1010.3 ± 7.8 g, the “body weight, percent increased” value [18] was “+2.0%” and the body weight gain [19] was 413.4 ± 14.2 g. The “body weight gain, percent increase” value [19] was 9.3%, the “body weight, least squares mean ± standard error of the mean corrected by initial weight” value [19] was 1254.1 ± 14.2 g and the “body weight, percent increased” value [19] was “+2.8%”. For the same molecule, the body weight gain [20] was 573.1 ± 19.3 g, the “body weight gain, percent increase” value [20] was 4.5% and the “body weight, least squares mean ± standard error of the mean corrected by initial weight” value [20] was 1415.4 ± 19.1 g. The “body weight, percent increased” value [20] was “+2.0%”, the body weight gain [21] was 823.2 ± 19.2 g and the “body weight gain, percent increase” value [21] was 5.7%. For the same molecule, the “body weight, least squares mean ± standard error of the mean corrected by initial weight” value [21] was 1664.4 ± 19.2 g.
